The results in this text go back to patent publication US20140057895A1, “INDAZOLE- AND PYRROLOPYRIDINE-DERIVATIVE AND PHARMACEUTICAL USE THEREOF” (priority 2011, published 2014).

Assay [1] concerns the target T1, Human 5-HT4 receptor (5-HT4b) (Homo sapiens, UniProt Q13639).
T1 construct: expressed in transfected cells; membrane preparation
Briefly: Test Example 3: Human 5-HT4 receptor binding assay, membranes of CHO-K1 cells stably expressing 5-HT4b receptors (Table 99). Conditions: mean value of each group. On the procedure:
To an assay tube were added 0.1 nM [^3H]-GR113808 {chemical name: [1-[2-(methylsulfonylamino) ethyl]-4-piperidinyl]methyl 1-methylindole-3-carboxylate}, receptor membrane preparations, and Hepes buffer (50 mM, pH 7.4, 4° C., 1 ml) containing test compounds or 30 μM serotonin; and the mixture was incubated at 37° C. for 30 minutes. On quenching the reaction, the mixture was rapidly filtered on whatman GF/B filter, which was presoaked in 0.1% polyethyleneimine for 1 hour, by using Brandel cell Harvester, and washed with ice-cooled 50 mM Tris-HCl (pH 7.7, 4 ml) three times. To the filter after filtration was added a liquid scintillator (Ecoscint), and then a radioactivity was determined by a liquid scintillation counter.
50% Inhibition concentrations (IC50) were determined from inhibition rates of test compounds to specific bindings which were obtained by subtracting nonspecific bindings from total binding amounts of [^3H]-GR113808.
Human 5-HT4 receptor membrane preparations were prepared from CHO-K^1 cells which stably express 5-HT4b receptors, and human 5-HT4 receptor binding assay was carried out in a similar manner as in the guinea pig 5-HT4 receptor binding assay. The following tables show results of serotonin 4 (5-HT4) receptor binding assay. In the following tables, the compounds used in the test are shown in numbers which correspond to the Example numbers above where the preparations of the compounds are described.

A further assay addresses T2, human 5-HT4b receptor (Homo sapiens, UniProt Q13639).
T2 construct: expressed in transfected cells; host or cells: CHO cells (G418 selection)
The assay is described as follows: Test Example 4: Serotonin 4 (5-HT4) receptor agonist activity assay, cAMP HTRF in CHO cells (Table 100). In kind it is cell-based. As to conditions: mean value; for Emax: CHO, 0.25 h, intrinsic activity, maximal activity of 5-HT defined as 100%, read-out: IA (%); for EC50: concentration showing 50% of IA. The essentials:
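Read-out is HTRF cAMP (time-resolved fluorescence 620/665 nm after 1 h RT with cAMP-cryptate and cAMP-d2), from recombinant CHO cells bearing human 5-HT4b treated with compound 15 min at 31° C. in Hanks/HEPES buffer pH 7.4. IA (%) scaled to peak 5-HT effect over 10^−11–10^−7 M; EC50 is concentration giving half that IA.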
(In TR-FRET formats the signal depends on donor and acceptor labels being close together.)

T2 sequence (Q13639 whole entry): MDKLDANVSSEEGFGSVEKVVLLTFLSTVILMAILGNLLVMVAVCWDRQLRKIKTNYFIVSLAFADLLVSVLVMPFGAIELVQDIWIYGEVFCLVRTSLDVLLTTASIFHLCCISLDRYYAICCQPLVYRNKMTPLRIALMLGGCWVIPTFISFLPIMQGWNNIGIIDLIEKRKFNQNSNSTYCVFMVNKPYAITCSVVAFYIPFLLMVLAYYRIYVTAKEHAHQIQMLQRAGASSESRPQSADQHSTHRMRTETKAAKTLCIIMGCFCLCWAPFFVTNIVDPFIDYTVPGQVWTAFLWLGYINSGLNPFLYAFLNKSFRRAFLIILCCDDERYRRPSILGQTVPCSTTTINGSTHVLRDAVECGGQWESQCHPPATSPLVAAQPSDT
T1 sequence (Q13639 whole entry): as above

`CC(=O)N1CC[C@H](CN2CC[C@H](Cc3nc(-n4nc(C(C)C)c5cccc(F)c54)no3)C2)C1` [Example 505, 1-[(3R)-3-{[(3R)-3-({3-(7-fluoro-3-(propan-2-yl)-1H-indazol-1-yl]-1,2,4-oxadiazol-5-yl}methyl)pyrrolidin-1-yl]methyl}pyrrolidin-1-yl]ethanone]: the IC50 – broadly, the concentration at which inhibition is half-maximal – in assay [1] was below 20 nM. Moreover, on human 5-HT4b receptor, the Emax was found to be 52% and the EC50 – broadly, the concentration needed to bring the measured effect to its halfway point – worked out at 5.5 nM.

`CC(C)c1nn(-c2noc(C[C@H]3CCN(C[C@@H]4CCN(S(C)(=O)=O)C4)C3)n2)c2c(F)cccc12` [Example 504, 7-fluoro-1-(5-{[(3R)-1-{[(3S)-1-(methylsulfonyl)pyrrolidin-3-yl]methyl}pyrrolidin-3-yl]methyl}-1,2,4-oxadiazol-3-yl)-3-(propan-2-yl)-1H-indazole] returned an IC50 in assay [1] below 20 nM. Also, on human 5-HT4b receptor, the Emax was determined as 47% and the response was half-maximal at 3.9 nM (EC50).

`CC(C)c1nn(-c2noc(C3CCN(C4CCN(C(=O)CO)CC4(C)C)CC3)n2)c2c(F)cccc12` (stereo not drawn) [Example 531, 1-(4-{3-[7-fluoro-3-(propan-2-yl)-1H-indazol-1-yl]-1,2,4-oxadiazol-5-yl}-3′,3′-dimethyl-1,4′-bipiperidin-1′-yl)-2-hydroxyethanone] gave an IC50 in assay [1] below 20 nM. For the same compound, at human 5-HT4b receptor, the Emax was found to be 95% and the midpoint of the response, the EC50, lay at 11.4 nM.

Regarding `CC(C)c1nn(-c2noc(C3CCN(C[C@H]4CCN(S(C)(=O)=O)C4)CC3)n2)c2c(F)cccc12` [Example 586, 7-fluoro-1-[5-(1-{[(3R)-1-(methylsulfonyl)pyrrolidin-3-yl]methyl}piperidin-4-yl)-1,2,4-oxadiazol-3-yl]-3-(propan-2-yl)-1H-indazole], the IC50 in assay [1] was below 20 nM. For the same compound, at human 5-HT4b receptor, the Emax was 105% and a half-maximal response (EC50) required 2.2 nM.

Turning to `CC(C)c1nn(-c2noc([C@H]3CC[C@@H](NC4CCN(S(C)(=O)=O)C4)CC3)n2)c2c(F)cccc12` (relative stereo) [Example 616, N-(cis-4-{3-[7-fluoro-3-(propan-2-yl)-1H-indazol-1-yl]-1,2,4-oxadiazol-5-yl}cyclohexyl)-1-(methylsulfonyl)pyrrolidin-3-amine], in assay [1], the IC50 is below 20 nM. In addition, at human 5-HT4b receptor, the Emax was 105% and the EC50 stood at 13 nM.

`CCc1nn(-c2noc(C3CCN(C4(C)CCN(C(=O)CO)CC4)CC3)n2)c2c(F)cccc12` [Example 538, 1-{4-[3-(3-ethyl-7-fluoro-1H-indazol-1-yl)-1,2,4-oxadiazol-5-yl]-4′-methyl-1,4′-bipiperidin-1′-yl}-2-hydroxyethanone] returned an IC50 in assay [1] below 20 nM. On human 5-HT4b receptor, the Emax was determined as 76% and the EC50 came to 2.4 nM.

For `CC(=O)N1CCC(N2C3CCC2CC(c2nc(-n4nc(C(C)C)c5cccc(F)c54)no2)C3)CC1` (stereo not drawn) [Example 419, 1-{4-[3-{3-[7-fluoro-3-(propan-2-yl)-1H-indazol-1-yl]-1,2,4-oxadiazol-5-yl}-8-azabicyclo[3.2.1]oct-8-yl]piperidin-1-yl}ethanone], the IC50 in assay [1] turned out to be 63.8 nM. Moreover, on human 5-HT4b receptor, the Emax turned out to be 110% and a half-maximal response (EC50) required 10.4 nM.

With `CC(C)c1nn(-c2noc(C[C@@H]3CCN(C[C@H]4CCCN4S(C)(=O)=O)C3)n2)c2c(F)cccc12` [Example 512, 7-fluoro-1-(5-{[(3S)-1-{[(2R)-1-(methylsulfonyl)pyrrolidin-2-yl]methyl}pyrrolidin-3-yl]methyl}-1,2,4-oxadiazol-3-yl)-3-(propan-2-yl)-1H-indazole], the IC50 in assay [1] was below 20 nM. For the same compound, at human 5-HT4b receptor, the Emax is 30% and the EC50 was found to be 4.3 nM.

`CC(=O)N1CCC[C@@H]1CN1CC[C@@H](Cc2nc(-n3nc(C(C)C)c4cccc(F)c43)no2)C1` [Example 511, 1-[(2R)-2-{[(3S)-3-({3-[7-fluoro-3-(propan-2-yl)-1H-indazol-1-yl]-1,2,4-oxadiazol-5-yl}methyl)pyrrolidin-1-yl]methyl}pyrrolidin-1-yl]ethanone]: in assay [1], the IC50 is below 20 nM. Also, on human 5-HT4b receptor, the Emax is 51% and the midpoint of the response, the EC50, lay at 9.6 nM.

In assay [1], `CC(C)c1nn(-c2noc([C@H]3CC[C@@H](NCC4CCN(S(C)(=O)=O)CC4)CC3)n2)c2c(F)cccc12` [Example 618, cis-4-{3-[7-fluoro-3-(propan-2-yl)-1H-indazol-1-yl]-1,2,4-oxadiazol-5-yl}-N-{[1-(methylsulfonyl)piperidin-4-yl]methyl}cyclohexanamine] gave an IC50 below 20 nM. Besides, at human 5-HT4b receptor, the Emax was determined as 32% and the EC50 came out at 6.2 nM.

In turn, `CC(=O)N1CCC(C)(N2CCC(c3nc(-n4nc(C(C)C)c5cccc(F)c54)no3)CC2)CC1` [Example 487, 1-(4-{3-[7-fluoro-3-(propan-2-yl)-1H-indazol-1-yl]-1,2,4-oxadiazol-5-yl}-4′-methyl-1,4′-bipiperidin-1′-yl)ethanone] returned a half-inhibitory concentration (IC50) in assay [1] below 20 nM. Further, on human 5-HT4b receptor, the Emax worked out at 70% and it took 3.2 nM to reach a half-maximal effect (EC50).

`CC(=O)N1CCC[C@H]1CN1CC[C@H](Cc2nc(-n3nc(C(C)C)c4cccc(F)c43)no2)C1` [Example 497, 1-[(2S)-2-{[(3R)-3-({3-[7-fluoro-3-(propan-2-yl)-1H-indazol-1-yl]-1,2,4-oxadiazol-5-yl}methyl)pyrrolidin-1-yl]methyl}pyrrolidin-1-yl]ethanone] gave a half-maximal inhibitory concentration (IC50) in assay [1] of 76.1 nM. On human 5-HT4b receptor, the Emax turned out to be 88% and the response was half-maximal at 5.8 nM (EC50).

In assay [1], `CC(=O)N1CC(CN2CC[C@H](Cc3nc(-n4nc(C(C)C)c5cccc(F)c54)no3)C2)C1` [Example 501, 1-(3-{[(3R)-3-({3-[7-fluoro-3-(propan-2-yl)-1H-indazol-1-yl]-1,2,4-oxadiazol-5-yl}methyl)pyrrolidin-1-yl]methyl}azetidin-1-yl)ethanone] showed an IC50 below 20 nM. Further, on human 5-HT4b receptor, the Emax stood at 84% and the concentration giving a half-maximal response (EC50) is 3.5 nM.

Regarding `CC(C)c1nn(-c2noc(C[C@H]3CCN(C[C@@H]4CCCN4C(=O)CO)C3)n2)c2c(F)cccc12` [Example 540, 1-[(2S)-2-{[(3R)-3-({3-[7-fluoro-3-(propan-2-yl)-1H-indazol-1-yl]-1,2,4-oxadiazol-5-yl}methyl)pyrrolidin-1-yl]methyl}pyrrolidin-1-yl]-2-hydroxyethanone], the concentration for half-maximal inhibition (IC50) in assay [1] is 78.1 nM. Moreover, at human 5-HT4b receptor, the Emax was 106% and it took 15.3 nM to reach a half-maximal effect (EC50).

`CC(C)c1nn(-c2noc(C[C@@H]3CCN(CC4CN(S(C)(=O)=O)C4)C3)n2)c2c(F)cccc12` [Example 514, 7-fluoro-1-(5-{[(3S)-1-{[1-(methylsulfonyl)azetidin-3-yl]methyl}pyrrolidin-3-yl]methyl}-1,2,4-oxadiazol-3-yl)-3-(propan-2-yl)-1H-indazole] showed an IC50 in assay [1] below 20 nM. In addition, on human 5-HT4b receptor, the Emax is 70% and it took 12 nM to reach a half-maximal effect (EC50).

For the compound `CCc1nn(-c2noc(C3CCN(C4(C)CCN(C(=O)N(C)C)CC4)CC3)n2)c2c(F)cccc12` [Example 493, 4-[3-(3-ethyl-7-fluoro-1H-indazol-1-yl)-1,2,4-oxadiazol-5-yl]-N,N,4′-trimethyl-1,4′-bipiperidine-1′-carboxamide], in assay [1], the IC50 was below 20 nM. At human 5-HT4b receptor, the Emax was 75% and a half-maximal response (EC50) required 1.5 nM.

The compound `CC(=O)N1CCC(N2CCC(F)(c3nc(-n4nc(C(C)C)c5cccc(F)c54)no3)CC2)CC1` [Example 561, 1-(4-fluoro-4-{3-[7-fluoro-3-(propan-2-yl)-1H-indazol-1-yl]-1,2,4-oxadiazol-5-yl}-1,4′-bipiperidin-1′-yl)ethanone] yielded an IC50 in assay [1] of 33.3 nM. Also, on human 5-HT4b receptor, the Emax is 109% and the EC50 is 8.9 nM.

In assay [1], `Cc1nn(-c2noc(C3CCN(C4CCN(C(=O)CO)CC4)CC3)n2)c2c(F)cccc12` [Example 525, 1-{4-[3-(7-fluoro-3-methyl-1H-indazol-1-yl)-1,2,4-oxadiazol-5-yl]-1,4′-bipiperidin-1′-yl}-2-hydroxyethanone] came in with an IC50 below 20 nM. Moreover, at human 5-HT4b receptor, the Emax was 86% and the EC50 was found to be 18.1 nM.

With `CC(C)c1nn(-c2noc(C[C@@H]3CCN(C[C@@H]4CCCN4C(=O)CO)C3)n2)c2c(F)cccc12` [Example 546, 1-[(2S)-2-{[(3S)-3-({3-[7-fluoro-3-(propan-2-yl)-1H-indazol-1-yl]-1,2,4-oxadiazol-5-yl}methyl)pyrrolidin-1-yl]methyl}pyrrolidin-1-yl]-2-hydroxyethanone], the 50% inhibitory concentration (IC50) in assay [1] was below 20 nM. Further, at human 5-HT4b receptor, the Emax was found to be 63% and the midpoint of the response, the EC50, lay at 20.1 nM.

In turn, `CC(C)c1nn(-c2noc([C@H]3C[C@@H](NCC4CCCO4)C3)n2)c2c(F)cccc12` (relative stereo) [Example 596, cis-3-{3-[7-fluoro-3-(propan-2-yl)-1H-indazol-1-yl]-1,2,4-oxadiazol-5-yl}-N-(tetrahydrofuran-2-ylmethyl)cyclobutanamine] registered an IC50 in assay [1] below 20 nM. Besides, on human 5-HT4b receptor, the Emax was found to be 82% and a half-maximal effect (EC50) was put at 4.1 nM.
